# Results from patent US11440887B2, “Substituted 1,2,3,4-tetrahydroquinolines as inhibitors of repair enzyme 8-oxoguanine deoxyribonucleic acid glycosylase activity” (The Board of Trustees of the Leland Stanford Junior …, priority 2017, dated 2022).
# Values joined by “and” are separate entries in the source; they are usually repeats but may differ in a detail not shown here. Identical values can stand only once.
# Columns and labels:
# [1] = system: Caco-2 cells (clone C2BBe1); experiment: CACO-2 permeability assay; format: in vitro ADME; conditions: for Recovery: 5 μM, 120 minutes; for Papp AVG: average; for Papp R1: replicate 1
# Experimental: Methods: Caco-2 cells (clone C2BBe1) were obtained from American Type Culture Collection (Manassas, Va.). Cell monolayers were grown to confluence on collagen-coated, microporous membranes in 12-well assay plates. Details of the plates and their certification are shown below. The permeability assay buffer was Hanks' balanced salt solution containing 10 mM HEPES and 15 mM glucose at a pH of 7.4. The buffer in the receiver chamber also contained 1% bovine serum albumin. The dosing solution concentration was 5 μM of test article in the assay buffer. Cell monolayers were dosed on the apical side (A-to-B) or basolateral side (B-to-A) and incubated at 37° C. with 5% CO2 in a humidified incubator. Samples were taken from the donor and receiver chambers at 120 minutes. Each determination was performed in duplicate. The flux of Lucifer yellow was also measured post-experimentally for each monolayer to ensure no damage was inflicted to the cell monolayers during the flux period. All samples were assayed by LC-MS/MS using electrospray ionization.
# [2] = Half-life / pharmacokinetics after intraperitoneal dosing; format: in vivo; conditions: mice, IP, 3 mg/kg
# Experimental: Methods: Each OGG1 inhibitor was dosed by intraperitoneal (IP) and oral (PO) routes of administration at a target dose of 3 mg/kg. Blood samples were collected up to 24 hours post-dose, and blood concentrations of the test articles were determined by LC-MS/MS. Pharmacokinetic parameters were determined using Phoenix WinNonlin (v8.0) software
# OGG1 = OGG1 (Homo sapiens (Human), UniProt O15527); experiment: Surface plasmon resonance (SPR) binding to OGG1
# Experimental: Additional embodiments utilize surface plasmon resonance (SPR) to investigate the binding of various compounds to OGG1. […] Specifically, FIG. 8A illustrates a sensorgram plot of binding response versus time, while FIG. 8B illustrates binding response versus concentration of an inhibitor. Further, FIG. 8C provides Ka, Kd and KD values that are calculated for compounds of various embodiments. These figures indicate that certain embodiments bind strongly to OGG1.
# [3] = system: DUT (deoxyuridine 5′-triphosphate nucleotidohydrolase); conditions: 20 μM
# Chain of OGG1 (O15527 whole entry): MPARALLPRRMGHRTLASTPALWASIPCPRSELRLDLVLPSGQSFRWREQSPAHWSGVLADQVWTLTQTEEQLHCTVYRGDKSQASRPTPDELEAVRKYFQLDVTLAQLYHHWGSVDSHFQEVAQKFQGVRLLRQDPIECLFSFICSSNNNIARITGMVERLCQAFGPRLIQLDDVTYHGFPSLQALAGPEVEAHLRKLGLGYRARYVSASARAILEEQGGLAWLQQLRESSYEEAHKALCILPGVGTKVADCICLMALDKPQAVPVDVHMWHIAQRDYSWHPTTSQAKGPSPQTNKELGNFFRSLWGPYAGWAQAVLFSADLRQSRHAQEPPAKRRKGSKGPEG
smiles,measurement,setting,value
NC(=O)c1cccc(-c2ccc(S(=O)(=O)Nc3ccc4c(c3)N(C(=O)C3CC3)CCC4)cc2)c1 [Compound 41],Recovery,[1]; A-to-B,65%
same,Papp AVG,[1]; A-to-B,12.5 10^−6 cm/s
same,Papp R1,[1]; A-to-B,14.2 10^−6 cm/s
same,Efflux Ratio,[1]; B-to-A / A-to-B,6.2
same,Recovery,[1]; B-to-A,79%
same,Papp AVG,[1]; B-to-A,77.4 10^−6 cm/s
same,Papp R1,[1]; B-to-A,63.5 10^−6 cm/s
same,"average exposure, dose-normalized AUClast",[2],543±281 hr*kg*ng/m L/m g
same,maximum blood concentrations (average),[2],1210 ± 206 ng/mL
same,time of maximum blood concentrations post dosing,[2],15 min
same,Half-life Mean,"[2]; mean of three replicates, listed as SU0268",approximately 4 hr and 4.02±0.709 hr and 4.02 hr
same,Half-life R1,[2]; replicate 1,4.84 h
same,Half-life R3,[2]; replicate 3,3.60 h
same,binding to OGG1 by SPR,OGG1,binds strongly
same,activity of compound against DUT (selectivity),[3],low
